{"source": "paper PMC10305181", "about": "“A VEGFB-Based Peptidomimetic Inhibits VEGFR2-Mediated PI3K/Akt/mTOR and PLCγ/ERK Signaling and Elicits Apoptotic, Antiangiogenic, and Antitumor Activities” (Pharmaceuticals, 2023)", "key": {"[1]": {"system": "signaling proteins in 4T1 MCT cells", "assay": "Western blot analysis, 4T1 cells", "assay_type": "cell-based, murine", "method": "Next, VEGFR2 signaling was investigated in 4T1 MCTs. […] Considering the implication of the PI3K/AKT/mTOR signaling pathway in most human cancers, the effect of C-VGB3 on this pathway was evaluated in 4T1 MCT cells. […] The NF-κB pathway is an important target of AKT, which contributes to abnormal cell proliferation and differentiation, the inhibition of apoptosis, enhanced metastasis, and treatment resistance. Therefore, the inhibition of upstream AKT signaling would be expected to downregulate NF-κB and/or p-NF-κB.\nThe levels of signaling proteins were investigated by the Western blot assay. 4T1 and HUVE cells stimulated by VEGF (20 ng·mL^−1) were treated with (0.40 μM) or without C-VGB3 (treatment and control groups, respectively) after starvation in a serum-free medium for 24 h. After washing with PBS buffer twice, the cells were treated with RIPA lysis buffer containing (Sigma, St. Louis, MO, USA). Bradford′s test was performed to estimate the protein concentration. Equal amounts of total protein were electrophoresed on a 10% SDS-polyacrylamide gel, separated, and then transferred to a nitrocellulose membrane. Nitrocellulose was soaked in a blocking buffer containing 5% dry milk, Tris-buffered saline, and Tween 20 (TBST) for 1 h at ambient temperature. The nitrocellulose membrane was then washed with wash buffer and treated with antibodies against VEGFR2 p-VEGFR2, AKT, p-AKT, PI3K, mTOR, p-mTOR, NF-κB, p-NFκB, P53, MDM2, Bax, Bcl2, Bid, Bim, Apaf-1, cytochrome c, caspase-9, Fas (CD95), DR4 (CD261), DR5 (CD262), caspase3, caspase7, caspase8, PARP1, ERK 1/2, p-ERK1/2, Ras, Raf, Cdk4, GSK-3β, cyclin D1, vimentin, N-cadherin, E-cadherin, FAK, p-FAK, paxillin, p-paxillin, and β-actin overnight at 4 °C. The next steps were performed as described previously. Because molecular weight ranges of target signaling proteins are very close, individual gels were run for separate signaling proteins (Figure S7)."}, "Ki67-positive cells": {"system": "Ki67-positive cells", "assay": "Ki67 immunohistochemistry of 4T1 tumors (proliferation)", "assay_type": "in vivo, murine", "conditions": "0.2 mg·kg^−1 i.v.; n = 3; p = 0.04 vs control", "method": "Figure 2 Loop formation is important for the antitumor activity of VGB3. (A) To investigate the efficacy of VGB3 peptides in vivo 13 days after transplantation of a 4T1 murine MCT into female BALB/c mice (the tumor volume ~150 mm^3), the treatment groups received 0.2 mg·kg^−1 (once every 2 days, i.v.) of either the C-VGB3 or L-VGB3 and the control group received PBS for 20 days. Error bars denote ± SEM. n = 6; **** p < 0.0001, ns = not significant; two-way ANOVA. (B) Investigation of C-VGB3 and L-VGB3 effects on mice weight. […] (C,D) Immunohistochemical (IHC) analyses of CD31 and Ki67 for the C-VGB3-, L-VGB3- and PBS-treated tumors. For IHC staining, the sections of tumor tissues were incubated with the primary mouse monoclonal antibodies for CD31 (1:2000 (v/v)) and Ki67 (5 µg·mL^−1). […] Photographs were taken at 40× magnification. Error bars denote ± SEM. n = 3; * 0.02 ≤ p ≤ 0.04, ns = not significant; one-way ANOVA.\nFor immunohistochemistry staining, deparaffinized tumor sections were incubated overnight at 4 °C with mouse monoclonal primary anti-Ki67 (5 µg·mL^−1) or anti-CD31 (1:2000 (v/v)). The antigens were detected using 3,3-diaminobenzidine. All images were captured and analyzed with an Olympus BX51 microscope (Olympus America, New York, NY, USA)."}, "[2]": {"system": "extracellular domain of VEGFR2 (KDR)", "assay": "ELISA-based displacement (competition binding) of biotinylated VEGF from VEGFR2", "conditions": "ELISA, n = 3", "method": "Figure 3 The binding affinity of C-VGB3 to VEGFR2. (A) ELISA-based displacement assay. The gradient concentrations of C-VGB3 (0, 0.316, 1, 3.16, 10, 31.6, 100, and 316 μM) were used in the assay. […] Error bars denote ± SEM. n = 3; ** p = 0.001, *** p = 0.0001, **** p < 0.0001, ns = not significant; one-way ANOVA. (B) A three-dimensional (produced by UCSF chimera software version 1.12) and a two-dimensional representation (produced by LigPlot software) of interactions in the C-VGB3/VEGFR2 complex is shown on the left and the right, respectively.\nA displacement assay was conducted as reported previously with some modifications, including using 20 ng of the VEGFR2 extracellular domains (R&D Systems, Minneapolis, MN, USA). Peptide compounds were assayed three times per experiment.\nFigure S6. Evaluating the binding capability of L-VGB3 to VEGFR2\n(A) ELISA-based displacement assay. The gradient concentrations of L-VGB3 (3.16, 10, […]\nto the extracellular domain of VEGFR2 at applied concentrations. (B) Two-dimensional representation of interactions (produced by LigPlot software) in L-VGB3/VEGFR2 […]"}}, "note": "Bridge positions count the residues as written; N and C are the ends. Peptide text beside a SMILES is read from it.", "data": [{"smiles": "CC(C)C[C@@H]1NC(=O)CNC(=O)[C@H](CC(=O)O)NC(=O)[C@H](CC(=O)O)NC(=O)[C@@H]2CCCN2C(=O)[C@@H]2CCCN2C(=O)[C@H](CCCNC(=N)N)NC(=O)[C@@H](NC(=O)[C@@H](N)CCC(=O)O)CSSC[C@@H](C(=O)O)NC1=O", "note": "[C-VGB3] (H-ECRPPDDGLC-OH; disulfide 2-10)", "values": [{"measurement": "increase in cleaved PARP1", "setting": "[1]; 4T1 (second of 'respectively'), 0.40 μM, p < 0.0001", "result": 4.05, "unit": "fold"}, {"measurement": "Fas expression", "setting": "[1]; 4T1, 0.40 μM", "result": "not affected"}, {"measurement": "increase in Bax/Bcl2 ratio", "setting": "[1]; 4T1, 0.40 μM", "result": "~5.25", "unit": "fold"}, {"measurement": "increased level of cleaved caspase-3", "setting": "[1]; 4T1, 0.40 μM", "result": 4.0, "unit": "times"}, {"measurement": "increased level of cleaved caspase-7", "setting": "[1]; 4T1, 0.40 μM", "result": 4.1, "unit": "times"}, {"measurement": "increased level of cleaved caspase-9", "setting": "[1]; 4T1, 0.40 μM", "result": 3.5, "unit": "times"}, {"measurement": "Bax level", "setting": "[1]; 4T1, 0.40 μM, p < 0.0001", "result": "increased"}, {"measurement": "DR4 level", "setting": "[1]; 4T1, 0.40 μM, p < 0.0001", "result": "increase"}, {"measurement": "MDM2 level", "setting": "[1]; 4T1, 0.40 μM, p < 0.0001", "result": "markedly decreased"}, {"measurement": "P53 level", "setting": "[1]; 4T1, 0.40 μM, p < 0.0001", "result": "enormously increased"}, {"measurement": "VEGFR2 level", "setting": "[1]; 4T1, 0.40 μM, p < 0.0001", "result": "suppressed"}, {"measurement": "paxillin", "setting": "[1]; 4T1, 0.40 μM, p < 0.0001", "result": "substantially inhibited"}, {"measurement": "p-VEGFR2 level", "setting": "[1]; 4T1, 0.40 μM, p = 0.0001", "result": "suppressed"}, {"measurement": "p-paxillin", "setting": "[1]; 4T1, 0.40 μM, p = 0.0001", "result": "substantially inhibited"}, {"measurement": "Apaf-1", "setting": "[1]; 4T1, 0.40 μM, p = 0.001", "result": "promoted"}, {"measurement": "Bcl2 expression", "setting": "[1]; 4T1, 0.40 μM, p = 0.001", "result": "decrease"}, {"measurement": "Bid expression level", "setting": "[1]; 4T1, 0.40 μM, p = 0.001", "result": "increased"}, {"measurement": "DR5 level", "setting": "[1]; 4T1, 0.40 μM, p = 0.001", "result": "increase"}, {"measurement": "E-cadherin expression", "setting": "[1]; 4T1, 0.40 μM, p = 0.001", "result": "potently increased"}, {"measurement": "FAK", "setting": "[1]; 4T1, 0.40 μM, p = 0.001", "result": "substantially inhibited"}, {"measurement": "N-cadherin level", "setting": "[1]; 4T1, 0.40 μM, p = 0.001", "result": "reduced"}, {"measurement": "p-AKT level", "setting": "[1]; 4T1, 0.40 μM, p = 0.001", "result": "significantly decreased"}, {"measurement": "p-FAK", "setting": "[1]; 4T1, 0.40 μM, p = 0.001", "result": "substantially inhibited"}, {"measurement": "p-mTOR level", "setting": "[1]; 4T1, 0.40 μM, p = 0.001", "result": "significantly decreased"}, {"measurement": "Bim level", "setting": "[1]; 4T1, 0.40 μM, p = 0.02", "result": "increased"}, {"measurement": "NF-κB level", "setting": "[1]; 4T1, 0.40 μM, p = 0.02", "result": "decreased levels"}, {"measurement": "PI3K level", "setting": "[1]; 4T1, 0.40 μM, p = 0.02", "result": "significantly decreased"}, {"measurement": "cytochrome c release", "setting": "[1]; 4T1, 0.40 μM, p = 0.02", "result": "promoted"}, {"measurement": "mTOR level", "setting": "[1]; 4T1, 0.40 μM, p = 0.02", "result": "significantly decreased"}, {"measurement": "p-NF-κB level", "setting": "[1]; 4T1, 0.40 μM, p = 0.02", "result": "decreased levels"}, {"measurement": "vimentin level", "setting": "[1]; 4T1, 0.40 μM, p = 0.02", "result": "reduced"}, {"measurement": "decrease in Ki67-positive cells", "setting": "Ki67-positive cells", "result": 60, "unit": "%"}, {"measurement": "inhibition of binding of bt-VEGF to KDR", "setting": "[2]; 0-316 μM", "result": "inhibits the binding of biotinylated VEGF (bt-VEGF) to KDR dose-dependently"}, {"measurement": "displacement of btVEGF165", "setting": "[2]; 100 μM, ectodomain of VEGFR2", "result": 58, "unit": "%"}]}]}
